According to US20260297542A1, “HERBICIDE RESISTANT PLANTS” (SYNGENTA CROP PROTECTION AG, priority 2023, published 2026):
Several values for one entry are separate records, joined by “and”; a condition that tells them apart may be missing. Identical values can stand only once. Like-named read-outs stand apart in the source and are kept apart here.

How the values were obtained:
[1] = molecular target: T1, His-TEV-AtPP01 ΔcTP V030 (SEQ ID NO: 374) (Arabidopsis thaliana, UniProt P55826, S305L/Y426V); assay: PPO fluorescence IC50 assay, partially purified enzyme; format: biochemical
T1 construct: with cTPs removed; made in house; host or cells: E. coli BL21 (DE3), His GraviTrap, partially purified
T1 sequence (P55826 with tags, fused parts or gaps S305L/Y426V): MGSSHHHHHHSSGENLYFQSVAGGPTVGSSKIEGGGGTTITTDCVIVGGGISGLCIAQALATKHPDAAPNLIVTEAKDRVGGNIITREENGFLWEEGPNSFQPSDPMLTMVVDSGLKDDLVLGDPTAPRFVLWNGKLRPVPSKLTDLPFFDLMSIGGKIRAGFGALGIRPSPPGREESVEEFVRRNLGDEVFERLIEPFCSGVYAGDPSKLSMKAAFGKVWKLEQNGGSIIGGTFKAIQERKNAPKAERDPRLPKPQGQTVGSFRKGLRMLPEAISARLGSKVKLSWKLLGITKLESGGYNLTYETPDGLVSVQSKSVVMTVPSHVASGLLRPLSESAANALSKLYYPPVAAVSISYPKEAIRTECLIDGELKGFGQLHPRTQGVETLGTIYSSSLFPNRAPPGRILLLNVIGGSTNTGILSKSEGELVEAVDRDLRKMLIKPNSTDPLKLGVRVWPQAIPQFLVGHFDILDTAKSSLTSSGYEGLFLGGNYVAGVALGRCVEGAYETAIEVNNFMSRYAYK
From the text: A pET24 plasmid containing a DNA sequence encoding variants of AtPPO1 derived from Arabidopsis thaliana with cTPs removed and both a 6×His tag and TEV protease cleavage tag added at the N-terminus, codon-optimised for expression in E. coli, and under control of a T7 promoter, was synthesised by Twist Bioscience. The following variants were synthesised: WT AtPPO1 (SEQ ID NO: 370), AtPPO1 L479M (SEQ ID NO: 371), AtPPO1 L479N (SEQ ID NO: 372), AtPPO1 S305L Y426V (SEQ ID NO: 374) and AtPPO1 S305L Y426V L479M (SEQ ID NO: 373). This plasmid was expressed in E. coli BL21 (DE3) with 50 μg/mL kanamycin selection. 10 mL of overnight cultures grown at 37° C. were used to inoculate 1 L AIM (AIM-Terrific Broth Base including Trace elements, Formedium) in 2 L shake flasks. Cultures were grown at 37° C., 200 rpm for 3 hours and then overnight at 26° C. Cells were harvested centrifugation. 5-15 g of cell pellet was lysed in and resuspended in ratio of 1:1.5 in lysis buffer (20 mM Tris pH8, 500 mM sodium chloride, 10% glycerol, 1× complete Protease EDTA-free Inhibitor Tablet (Roche), 10 mM imidazole). The resuspension was sonicated at 75% using 10 cycles of 30 seconds, 40 seconds off. After sonication Triton X-100 was added to the lysates at a final concentration of 0.5%. The lysates were centrifuged at 20,000 rpm for 25 min at 4° C. Cleared lysates were loaded on His GraviTrap (Cytiva) columns, washed with 20 mL of lysis buffer and eluted in elution buffer (20 mM Tris pH8, 500 mM sodium chloride, 10% glycerol, 200 mM imidazole, 0.03% (v/v) Triton X-100). The eluate was desalted on a PD10 column and 2.5-3.2 mL was collected. Protein concentration was measured and calculated using the absorbance at 280 nm. Extracts were diluted 1 in 4 and 10 uL was analysed by SDS PAGE.
Partially purified Protoporphyrinogen Oxidase enzymes were assayed for activity using fluorescence adapted from the method of Shepherd & Dailey (Anal Biochem. 2005 344(1) 115-121). The assay was performed in black 384 well plates with a clear bottom and the total volume of the reaction mixture was 91 ul. The final assay mixture contained 100 mM K2HPO4 pH7.2, 1 mM Na2EDTA, 5 mM DTT, 20% glycerol (v/v), 0.05% Tween 20 (v/v), 1.1% DMSO (v/v), 1 uM protoporphyrinogen IX and 1.5 nM enzyme. Compounds were dissolved in DMSO at 1 mM and a 4-fold serial dilution carried out to give 8 rates. 1 ul was added to the assay mixture. This gave final compound concentrations of 11, 2.7, 0.69, 0.17, 0.04, 0.01, 0.002, 0.0007 uM. Enzyme and inhibitor were preincubated for 5 minutes prior to starting the reaction with the addition of the substrate. […] IC50s were calculated using GraphPad Prism 7.05 nonlinear regression (Table 6). Each compound was tested in duplicate.

[2] = test system: tobacco plants containing pBin TMV AtPPO1; assay: herbicide damage to transgenic tobacco; format: in vivo; settings: 120 g ai/ha, per transgenic event, 0 no visible damage, 100 complete death
From the text: Populations of transgenic tobacco comprising 20-30 transgenic events per plant transformation constructs are generated as described in Example 4. These lines were clonally propagated and 1 clone per event was sprayed with PPO herbicides to confirm the herbicide resistance.
(§1) Herbicidal damage is visually assessed across the population and a herbicide damage score given at 7 and 14 days. A score of 0 indicates no visible damage or stunting whereas a score of 100 indicates a complete death of the plant. 20 transgenic events (i.e. individual transgenic plants) from each GM tobacco line are transplanted to soil 1 week prior to spraying with PPO inhibiting compounds. WT tobacco is included as a control.
as §1, with “damage was” for “damage is”, “line were” for “line are”

SMILES | IC50 [1] [nM] | percentage of damage ([2]; 7 DAT) | percentage of damage ([2]; 14 DAT) | IC50 ([1]; role: inhibitor, 1 uM protoporphyrinogen IX, <1.0 is below detection limit of assay) [nM]
C=CCOC(=O)C(C)(C)OC(=O)c1cc(-n2c(=O)cc(C(F)(F)F)n(C)c2=O)ccc1Cl [Butafenacil, butafenacil] | 11 | – | – | –
CCOC(=O)COc1cc(-c2nn(C)c(OC(F)F)c2Cl)c(F)cc1Cl [Pyraflufen-ethyl, pyraflufen-ethyl] | 18.6 | – | – | –
CS(=O)(=O)NC(=O)c1cc(Oc2ccc(C(F)(F)F)cc2Cl)ccc1[N+](=O)[O-] [Fomesafen, fomesafen] | 0.7 | – | – | –
CCOC(=O)[C@]1(C)CC(c2cc(-n3c(=O)n(C)c(=S)n(C)c3=O)c(F)cc2Cl)=NO1 [Herbicide D, ethyl (5S)-3-[2-chloro-5-(3,5-dimethyl-2,6-dioxo-4-thioxo-1,3,5-triazinan-1-yl)-4-fluoro-phenyl]-5-methyl-4H-isoxazole-5-carboxylate] | 269 | 100% and 95% and 99% and 97% and 65% and 92% and 98% | 100% and 95% and 99% and 75% and 97% and 96% | –
CCOC(=O)C1(C)CC(c2cc(-n3c(=O)cc(C(F)(F)F)n(C)c3=O)c(F)cc2Cl)=NO1 (stereo not shown) [Herbicide C, 3-(2-chloro-4-fluoro-5-(3-methyl-2,6-dioxo-4-trifluoromethyl-3,6-dihydropyrimidin-1(2H)-yl)phenyl)-5-methyl-4,5-dihydroisoxazole-5-carboxylic acid ethyl ester] | 92 | 100% and 95% and 94% and 97% | 100% and 90% and 95% and 97% and 99% | –
C#CCN1C(=O)C(F)(F)Oc2cc(F)c(-n3c(=O)n(C)c(=S)n(C)c3=O)cc21 [Herbicide B, trifludimoxazin] | 1.3 | 100% and 99% and 87% and 97% | 100% and 80% and 98% and 99% | –
C#CCN1C(=O)COc2cc(F)c(N3C(=O)C4=C(CCCC4)C3=O)cc21 [Flumioxazin, flumioxazin] | 47.2 | – | – | –
CC(C)N(C)S(=O)(=O)NC(=O)c1cc(-n2c(=O)cc(C(F)(F)F)n(C)c2=O)c(F)cc1Cl [Herbicide E, saflufenacil] | 547 | – | – | –
C#CCOc1cc(-n2nc3n(c2=O)CCCC3)c(Cl)cc1Cl [Azafenadin] | 117 | – | – | –
C#CCN(C)c1c(C#N)cnn1-c1nn2c(c1Cl)CCCC2 [Pyraclonil] | 4350 | – | – | –
CCOC(=O)COc1ncccc1Oc1cc(-n2c(=O)cc(C(F)(F)F)n(C)c2=O)c(F)cc1Cl [Herbicide A, epyrifenacil] | 323 | – | – | –
CC(C)Oc1cc(-n2nc(C(C)(C)C)oc2=O)c(Cl)cc1Cl [Oxadiazaon] | 4600 | – | – | –
COC(=O)C(C)ON=Cc1cc(-n2c(=O)cc(C(F)(F)F)n(C)c2=O)c(F)cc1Cl (stereo not shown) [Flufenoximacil, flufenoximacil] | – | – | – | 717
